Values after ≈ are worked out from the molar mass of the structure shown. Values joined by “and” are separate entries in the source; they are usually repeats but may differ in a detail not shown here. Equal values may be shown once. Read-outs that look alike come from different tables or passages of the source.
Experiments:
[1] = target: panel of 320 non-olfactory GPCRs (Homo sapiens, UniProt P07550); type: cell-based
[2] = target: panel of 320 non-olfactory GPCRs (Homo sapiens, UniProt P29371); type: cell-based
Chain of panel of 320 non-olfactory GPCRs (Homo sapiens, UniProt P29371) (P29371 whole entry): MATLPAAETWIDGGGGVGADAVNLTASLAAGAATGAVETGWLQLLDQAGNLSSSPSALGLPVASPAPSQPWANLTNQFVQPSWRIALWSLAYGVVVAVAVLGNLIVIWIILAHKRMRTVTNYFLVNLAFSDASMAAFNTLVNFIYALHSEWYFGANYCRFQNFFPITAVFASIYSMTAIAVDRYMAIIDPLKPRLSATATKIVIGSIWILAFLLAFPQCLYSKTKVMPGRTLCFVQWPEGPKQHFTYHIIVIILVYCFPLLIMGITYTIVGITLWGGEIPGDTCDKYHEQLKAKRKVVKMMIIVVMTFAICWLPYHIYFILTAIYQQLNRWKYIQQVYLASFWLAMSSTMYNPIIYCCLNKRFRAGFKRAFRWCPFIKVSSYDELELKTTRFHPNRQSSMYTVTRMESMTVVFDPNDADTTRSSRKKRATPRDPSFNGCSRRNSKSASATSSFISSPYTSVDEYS

mice [3] = assay: Hargreaves radiant heat test; type: in vivo, mouse; conditions: for Dose response, individual animals (FigS11a): test not printed on the sheet
mice [4] = assay: CFA inflammatory pain model; type: in vivo, mouse
Description: The CFA model of chronic inflammation was induced as described previously. Briefly, CFA (Sigma) was diluted 1:1 with saline and vortexed for 30 min. When fully suspended, we injected 20 μL of CFA into one hindpaw. Heat thresholds were measured before the injection (baseline) and 3 days after the injection using the Hargreaves test.

mice [5] = assay: Conditioned place preference; type: in vivo, mouse
Description: Briefly, mice were first habituated to the test apparatus, twice, and their preference for each chamber recorded for 30 min (Pretest). Two conditioning days followed in which mice received the vehicle control or the compound, and 30 min later restricted for 30 min in the preferred or non-preferred chamber, respectively. On day 5 (Test day), mice were allowed to roam freely between the 3 chambers of the apparatus and their preference for each chamber recorded for 30 min. To calculate the CPP score, we subtracted the time spent in each chamber of the box on the Pretest day from that of the Test day (CPP score = Test - Pretest).

mice [6] = assay: Body temperature by telemetric probe; type: in vivo, mouse; conditions: 0.2 mg/kg; for Body temperature (pre-injection = 100): individual animals, sheet Figure7a
Description: Body temperature (BT) was measured using a telemetric probe device (HD-X10; Data Science International). Briefly, under anesthesia, the probe device was placed in the mouse abdomen and a subcutaneous tunnel was created from the neck to the abdominal skin, through which a catheter (connected to the probe) was pulled and then inserted into the left carotid artery. Three weeks later, the implanted mice were singly housed in a cage that was placed on top of the DSI receiver (for probe signal detection). We monitored BT continuously over 2 h, in the following manner: 30 min (for baseline), 30 min after injection of the vehicle and then for 1 h after injection of the compound. Data were acquired using the Ponemah Telemetry acquisition software (DSI) and percent changes were presented relative to each mouse’s baseline.

[7] = mouse plasma, 1.0 µM
Description: (§1) Compounds were added to one chamber and the same volume of PBS buffer pH 7.4 to the other chamber. A standard solution was created by mixing an aliquot of spiked plasma with blank buffer without dialysis. […] The stability samples were immediately diluted with acetonitrile and stored at 4 °C until LC-MS/MS analysis. All samples were diluted 5-fold with 90% acetonitrile with internal standard with subsequent plasma proteins sedimentation by centrifuging at 5,796 g for 5 min. Supernatants were analyzed using HPLC system coupled with tandem mass spectrometer. The percentage of plasma protein-bound compound, recovery and stability were calculated using following equations:7 ProteinBinding=1−arearatioinbuffer/arearatioinplasma×100 8 Recovery=arearatioinbuffer+arearatioinplasma/arearatioinstabilitysample×100 9 Stability=arearatioinrecoverysample/arearatioinstabilitysample×100

[8] = relative to 100 at 0 min
Description: (§2) The reactions were stopped by adding 240 μL 90% acetonitrile containing internal standard with subsequent plasma proteins sedimentation by centrifuging at 5796 g for 5 min. Supernatants were analyzed by the HPLC system coupled with a tandem mass spectrometer. The percentage of the test compounds remaining after incubation in plasma and their half-lives (T1/2) were calculated.

[9] = relative to 100 at 0 min; remark: listed apart in the source
Description: (§3) Microsomal incubations were carried out in 96-well plates in 5 aliquots of 30 μL each (one for each time point). […] In the control reactions, the NADPH-cofactor system was substituted with phosphate buffer. […] Five time points over 40 min were analyzed. The reactions were stopped by adding 5 volumes of acetonitrile with internal standard to incubation aliquots, followed by protein sedimentation by centrifuging at 4869 g for 5 min. Each reaction was performed in duplicates. Supernatants were analyzed using the HPLC system coupled with a tandem mass spectrometer. The elimination constant (kel), half-life (T1/2), and intrinsic clearance (Clint) were determined in a plot of ln(AUC) versus time, using linear regression analysis.

physchem = conditions: phosphate-buffered saline, 25 °C, pH 7.4, aqueous buffer, kinetic from dmso stock
in vitro [10] = conditions: mouse, pH 7.4
Description: as §1

in vitro [11] = conditions: mouse, plasma
Description: as §2

in vitro [12] = conditions: mouse, microsomes, pH 7.4
Description: as §3

P-gp (human MDR1) = assay: in vitro; conditions: dog, MDCK-MDR1, pH 7.4
hCB1 [13] = target: T1, hCB1 (Homo sapiens, UniProt P21554); assay: DiscoverX PathHunter β-arrestin-2 recruitment; type: cell-based;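 note: CHO-K1 cells expressing hCB1, agonist mode, compound exposure with 1% vehicle, chemiluminescence read-out of the β-arrestin-2 recruitment signal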
T1 sequence (P21554 whole entry): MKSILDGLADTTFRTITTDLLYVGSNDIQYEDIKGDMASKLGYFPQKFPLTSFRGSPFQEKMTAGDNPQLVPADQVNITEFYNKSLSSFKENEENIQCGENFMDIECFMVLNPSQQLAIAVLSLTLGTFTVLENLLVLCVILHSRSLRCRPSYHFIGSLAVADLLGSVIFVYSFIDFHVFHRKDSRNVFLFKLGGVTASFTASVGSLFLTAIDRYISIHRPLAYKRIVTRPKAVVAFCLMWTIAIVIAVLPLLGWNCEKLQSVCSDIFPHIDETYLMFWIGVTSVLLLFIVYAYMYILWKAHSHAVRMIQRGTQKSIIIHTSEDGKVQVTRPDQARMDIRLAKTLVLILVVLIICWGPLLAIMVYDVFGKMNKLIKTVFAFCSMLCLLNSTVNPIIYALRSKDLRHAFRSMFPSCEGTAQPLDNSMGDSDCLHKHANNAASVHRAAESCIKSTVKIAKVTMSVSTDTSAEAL

hCB1 [14] = target: T1, hCB1; assay: Cerep HTRF cAMP inhibition assay, hCB1 CHO-K1; type: cell-based; set-up: host or cells: HEK293SL cells, transient PEI transfection
Description: (§4) The hCB1/2 CHO-K1 cells (ATCC: CCL-61) are suspended in HBSS buffer (Invitrogen) complemented with 20 mM HEPES (pH 7.4), then distributed in microplates at a density of 5.103 cells/well in the presence of either of the following: HBSS (basal control), the reference agonist (stimulated control) or the test compounds. […] Following 30 min incubation at 37 °C, the cells are lysed, and the fluorescence acceptor (D2-labeled cAMP) and fluorescence donor (anti-cAMP antibody labeled with europium cryptate) are added. […] Each measurement was done in triplicate.

hCB2 = hCB2 (Homo sapiens, UniProt P34972); assay: Cerep HTRF cAMP inhibition assay, hCB2 CHO-K1; type: cell-based; set-up: host or cells: HEK293SL cells, transient PEI transfection; conditions: for functional response, concentration-response point (FigS7d): replicate columns;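 for all read-outs here: compounds incubated 30 min at 37 °C with hCB2 CHO-K1 cells, cAMP detected by HTRF, HBSS as basal and reference agonist as stimulated control, run in triplicate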
Chain of hCB2 (P34972 whole entry): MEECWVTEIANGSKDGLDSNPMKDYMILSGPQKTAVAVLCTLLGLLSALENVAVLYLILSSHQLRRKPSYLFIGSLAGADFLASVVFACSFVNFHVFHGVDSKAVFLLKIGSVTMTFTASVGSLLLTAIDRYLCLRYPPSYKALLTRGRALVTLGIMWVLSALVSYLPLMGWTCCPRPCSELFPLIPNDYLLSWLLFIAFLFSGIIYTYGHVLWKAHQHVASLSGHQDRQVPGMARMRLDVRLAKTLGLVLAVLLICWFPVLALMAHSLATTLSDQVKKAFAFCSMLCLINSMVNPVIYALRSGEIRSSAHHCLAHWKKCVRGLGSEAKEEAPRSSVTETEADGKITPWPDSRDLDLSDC
Description: as §4

[15] = target: panel of 320 non-olfactory GPCRs (Homo sapiens, UniProt P08588); type: cell-based
Chain of panel of 320 non-olfactory GPCRs (Homo sapiens, UniProt P08588) (P08588 whole entry): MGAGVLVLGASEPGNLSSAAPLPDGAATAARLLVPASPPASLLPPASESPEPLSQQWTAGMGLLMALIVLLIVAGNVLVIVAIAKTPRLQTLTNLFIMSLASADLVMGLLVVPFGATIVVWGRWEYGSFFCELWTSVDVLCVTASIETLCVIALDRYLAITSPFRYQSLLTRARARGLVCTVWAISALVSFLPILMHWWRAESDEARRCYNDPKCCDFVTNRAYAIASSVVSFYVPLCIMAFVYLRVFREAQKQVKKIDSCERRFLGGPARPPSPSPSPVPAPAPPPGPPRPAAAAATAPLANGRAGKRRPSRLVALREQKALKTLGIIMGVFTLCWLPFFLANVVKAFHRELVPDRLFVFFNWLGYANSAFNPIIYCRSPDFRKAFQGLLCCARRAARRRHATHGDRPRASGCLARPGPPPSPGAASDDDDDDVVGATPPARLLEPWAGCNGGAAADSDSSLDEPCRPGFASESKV

[16] = target: panel of 320 non-olfactory GPCRs (Homo sapiens, UniProt Q8NGU9); type: cell-based
Chain of panel of 320 non-olfactory GPCRs (Homo sapiens, UniProt Q8NGU9) (Q8NGU9 whole entry): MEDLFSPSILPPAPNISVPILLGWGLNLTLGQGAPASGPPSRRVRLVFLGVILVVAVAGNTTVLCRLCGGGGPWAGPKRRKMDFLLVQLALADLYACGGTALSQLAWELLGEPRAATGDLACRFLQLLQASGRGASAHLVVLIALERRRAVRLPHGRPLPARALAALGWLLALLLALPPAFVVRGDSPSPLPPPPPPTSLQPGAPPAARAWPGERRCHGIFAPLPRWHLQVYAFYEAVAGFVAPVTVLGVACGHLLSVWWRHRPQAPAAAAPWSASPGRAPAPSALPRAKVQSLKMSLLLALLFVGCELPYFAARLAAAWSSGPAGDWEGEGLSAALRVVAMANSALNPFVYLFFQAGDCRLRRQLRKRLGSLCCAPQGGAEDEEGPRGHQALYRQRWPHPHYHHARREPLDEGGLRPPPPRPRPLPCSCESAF

Chain of panel of 320 non-olfactory GPCRs (Homo sapiens, UniProt P07550) (P07550 whole entry): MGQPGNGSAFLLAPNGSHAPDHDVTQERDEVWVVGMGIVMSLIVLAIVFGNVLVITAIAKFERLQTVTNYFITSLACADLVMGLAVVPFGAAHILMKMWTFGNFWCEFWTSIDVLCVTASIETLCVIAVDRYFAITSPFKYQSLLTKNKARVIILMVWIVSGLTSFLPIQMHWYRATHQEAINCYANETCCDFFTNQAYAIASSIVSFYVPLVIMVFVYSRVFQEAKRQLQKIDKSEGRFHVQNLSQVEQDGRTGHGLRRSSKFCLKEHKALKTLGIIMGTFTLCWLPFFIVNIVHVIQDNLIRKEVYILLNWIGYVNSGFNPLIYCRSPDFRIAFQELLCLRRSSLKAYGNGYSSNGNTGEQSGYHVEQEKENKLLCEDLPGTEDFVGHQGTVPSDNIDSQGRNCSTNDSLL

Structure (SMILES): COC(=O)[C@@](C)(NC(=O)c1cc(C)n(-c2cccc(C(F)(F)F)c2)n1)c1cccs1 [‘1350]
- Fold of Basal RLU [1]: 0.7
- Fold of Basal RLU [2]: 1.6 fold and 1.3 fold and 1.4 fold
- Dose response, individual animals (FigS11a) (mice [3]; Dose 0.05 mg/kg): 70.2102 and 59.9464 and 116.769 and 106.654 and 53.8477
- Dose response, individual animals (FigS11a) (mice [3]; Dose 0.1 mg/kg): 178.501 and 115.43 and 147.263 and 156.486
- Dose response, individual animals (FigS11a) (mice [3]; Dose 0.2 mg/kg): 166.452 and 178.501
- lowest dose with significantly increased latency, Hargreaves (mice [3]; i.p., 30 min after injection): 0.1 mg/kg
- effect on paw withdrawal latency after CFA (mice [4]; 0.2 mg/kg i.p.): increasing paw withdrawal latencies to well-above pre-CFA baseline thresholds
- CFA inflammatory pain response normalised to baseline (Figure5a), individual animals (mice [4]; 0.2 mg/kg, CFA-treated mice): 134.669 and 178.501 and 55.3352 and 183.627 and 40.7039 and 122.724 and 119
- Individual animal scores (FigS11e) (mice [5]; 0.2 mg/kg, test not printed on the sheet): 289 and 48 and 256 and -101 and 11 and -145 and -65 and -179
- conditioned place preference (mice [5]; drug-paired vs vehicle-paired chamber): does not induce preference
- hypothermia (mice [6]; vs baseline and vehicle): increased hypothermia compared to CP-55,940
- Body temperature (pre-injection = 100) (mice [6]; time 10): 97.5 and 99.4 (2×)
- Body temperature (pre-injection = 100) (mice [6]; time 20): 90.5 and 93.9 and 97
- Body temperature (pre-injection = 100) (mice [6]; time 30): 83.8 and 88.4 and 92.4
- Body temperature (pre-injection = 100) (mice [6]; time 40): 79.1 and 83.4 and 87.4
- Body temperature (pre-injection = 100) (mice [6]; time 50): 78.7 and 80.2 and 84.2
- Body temperature (pre-injection = 100) (mice [6]; time 60): 79.9 and 78.4 and 83.6
- Body temperature (pre-injection = 100) (mice [6]; time 70): 81.4 and 78.1 and 83.5
- Body temperature (pre-injection = 100) (mice [6]; time 80): 82.4 and 78.5 and 83.9
- Body temperature (pre-injection = 100) (mice [6]; time 90): 82.1 and 79.5 and 83.5
- Mean % of bound compound [7]: 94%
- Stability ([7]; 5 h): 11%
- Stability time course, Mean (FigS10e) ([8]; Time 0 min): 100
- Stability time course, Mean (FigS10e) ([8]; Time 20 min): 84.0951
- Stability time course, Mean (FigS10e) ([8]; Time 40 min): 66.362
- Stability time course, Mean (FigS10e) ([8]; Time 60 min): 47.7148
- Stability time course, Mean (FigS10e) ([8]; Time 120 min): 13.638
- Stability time course, Mean (FS10f) ([9]; Time 0 min): 100
- Stability time course, Mean (FS10f) ([9]; Time 7 min): 13.0354
- Stability time course, Mean (FS10f) ([9]; Time 15 min): 0.461
- Stability time course, Mean (FS10f) ([9]; Time 25 min): 0.1608
- Stability time course, Mean (FS10f) ([9]; Time 40 min): 0.1274
- solubility at 2 h (physchem): 23 µM (≈ 10.1 µg/mL)
- recovery at 5 h, 1 μM (in vitro [10]): 107%
- half-life at 1 µM (in vitro [11]): 41 min
- remaining at 20 min, 1 µM (in vitro [11]): 84%
- remaining at 40 min, 1 µM (in vitro [11]): 66%
- remaining at 1 h, 1 µM (in vitro [11]): 48%
- remaining at 2 h, 1 µM (in vitro [11]): 14%
- remaining at 40 min, 2 µM (in vitro [12]): 100%
- efflux ratio at 90 min, 10 μM (P-gp (human MDR1)): 1.3

Structure (SMILES): COC(=O)C(C)(NC(=O)c1cc(C)n(-c2cccc(C(F)(F)F)c2)n1)c1cccs1 (centres unmarked) [‘4042]
- DiscoverX ß-arrestin recruitment pEC50 (hCB1 [13]): 8.7 [8.3 – 9.6]
- response at log[M] -5 (FigS4f) (hCB1 [13]; log[M] = -5, individual replicates): 61.1792 and 63.739
- response at log[M] -5.47712 (FigS4f) (hCB1 [13]; log[M] = -5.47712, individual replicates): 59.4535 and 60.8053
- response at log[M] -5.95424 (FigS4f) (hCB1 [13]; log[M] = -5.95424, individual replicates): 62.531 and 63.2501
- response at log[M] -6.43136 (FigS4f) (hCB1 [13]; log[M] = -6.43136, individual replicates): 63.3939 and 54.9092
- response at log[M] -6.90849 (FigS4f) (hCB1 [13]; log[M] = -6.90849, individual replicates): 60.9779 and 60
- response at log[M] -7.38561 (FigS4f) (hCB1 [13]; log[M] = -7.38561, individual replicates): 55.1393 and 55.8296
- response at log[M] -7.86273 (FigS4f) (hCB1 [13]; log[M] = -7.86273, individual replicates): 45.8781 and 43.2321
- response at log[M] -8.33985 (FigS4f) (hCB1 [13]; log[M] = -8.33985, individual replicates): 34.3448 and 36.6457
- response at log[M] -8.81697 (FigS4f) (hCB1 [13]; log[M] = -8.81697, individual replicates): 21.5459 and 25.2274
- response at log[M] -9.29409 (FigS4f) (hCB1 [13]; log[M] = -9.29409, individual replicates): 9.61 and 9.437
- EC50 (hCB1 [13]; read-out: DiscoverX ß-arrestin recruitment EC50): 2.3 nM
- Emax (hCB1 [13]; read-out: DiscoverX ß-arrestin recruitment Emax): 71%
- Emax (hCB1 [14]; CHO-K1): 96%
- Cerep cAMP pEC50 (hCB1 [14]; hCB1): 11.1
- Emax (hCB2; CHO-K1, hCB2): 72%
- functional response, concentration-response point (FigS7d) (hCB2; Concentration [M] 1e-12): 9.2 and 15.9 and 20.5
- functional response, concentration-response point (FigS7d) (hCB2; Concentration [M] 1e-11): 54.5 and 33.7 and 39.7
- functional response, concentration-response point (FigS7d) (hCB2; Concentration [M] 1e-10): 72.4 and 68.7 and 74.5
- functional response, concentration-response point (FigS7d) (hCB2; Concentration [M] 1e-9): 87.6 and 76.3 and 78.1
- functional response, concentration-response point (FigS7d) (hCB2; Concentration [M] 1e-8): 74.4 and 84.9 and 81.3
- functional response, concentration-response point (FigS7d) (hCB2; Concentration [M] 1e-7): 79.5 and 79.9 and 79.2
- functional response, concentration-response point (FigS7d) (hCB2; Concentration [M] 1e-6): 80.1 and 76.3 and 83.8
- Cerep cAMP pEC50 (hCB2; hCB2): 10.95 [10.7 – 11.6]
- EC50 (hCB2; hCB2): 0.011 nM

Structure (SMILES): Cc1cc(C(=O)NC(C)(c2ccco2)c2ccco2)nn1-c1cccc(C(F)(F)F)c1 [‘4936]
- Fold of Basal RLU [15]: 0.7 and 0.8 and 0.6
- Fold of Basal RLU [16]: 0.7 and 0.6 and 0.5
